This is an account of results in patent publication US9394446B2, “Method for recovering Ru complex dye from used dye solution” (Tanaka Kikinzoku Kogyo K.K., priority 2012, dated 2016).

A short description of this data set: Mixing/dissolving behaviour of DMSO in ethers (inventors' observation). The data set is classed as physicochemical.

Turning to `C[S+](C)[O-]` [DMSO, dimethyl sulfoxide], the “mixing or dissolving in ethers (diethyl ether), in words” value is “hardly mixed or dissolved”.
